Assays:
[1] = Maximal tolerated dose, single dose IP in mice; format: in vivo
Procedure: Ten weeks of age IRC mice were injected IP with a single dose of Astarabine®, ranging from 1428 to 8271 mg/kg (50 to 300 mg/mice, respectively). Clinical evaluation included mobility observations, food and water consumption. […] After 7 days, the mice were sampled for hematology and biochemistry and then subjected to necropsy.

[2] = system: human leukemia cell lines; assay: Astarabine metabolite assay in human leukemia cell lines; format: cell-based
[3] = system: Molt-4 cells; assay: Human leukemia hollow fiber model transplanted in nude mice (Molt-4); format: in vivo; conditions: 7 consecutive days
Procedure: Next, the efficacy of Astarabine® in vivo was studied on a human leukemia (Molt-4 and CCRF-CEM cells) hollow fiber model transplanted in nude mice. Astarabine® was injected at doses of 6.25 mg/mouse/day and 25 mg/mouse/day intraperitoneally (IP), daily, for 7 consecutive days; cytarabine was injected at a dose of 1.5 mg/mouse/day. Leukemia cell growth was measured using the MTT assay as described in Example 1 herein above.

[4] = in vivo; conditions: IRC, mouse
Procedure: IRC mice were injected with Astarabine® IV daily for 14 days in a dosage ranging from 400 mg/kg/day to 1200 mg/kg/day. Based on the results of this 14 days intravenous repeated dose study in mice, it was concluded that the IV maximal tolerated dose for Astarabine® is 400 mg/kg/day, administrated for 14 consecutive days. The total administered dose in this group was 5600 mg/kg. All measured parameters such as clinical observations, neurobehavioral observations, motor activity observations, body weight, food consumption, blood analysis and urine analysis, were within the normal range as compared to the non-treated group. Thus, Astarabine® in a concentration of 400 mg/kg/day was considered as the NOAEL (No Adverse Effect Level) in mice. In vivo tolerability/toxicology studies to determine the MTD of a single dose in mice are shown in FIG. 1A and of repeated doses in mice are shown in FIG. 1B.

[5] = ICR, mouse, in vivo
Procedure: In vivo tolerability/toxicology studies were used to determine the MTD of a single dose of Astarabine® in mice (FIG. 1A) or of 14 daily repeated doses of Astarabine® in mice (FIG. 1B). The MTD was evaluated for intravenous (IV) or intraperitoneal (IP) administration.

[6] = system: AML and ALL patients; assay: Phase I/IIa open-label clinical study in AML and ALL patients; format: in vivo, human
Procedure: Phase I/IIa, open-label, uncontrolled, single-center study enrolled patients of 18 or more years of age with relapsed or refractory acute leukemia or those unfit for intensive therapy, as judged by the treating physician. The study was approved by the Rambam IRB (approval #0384-11).
Patients were enrolled into 4 Astarabine® escalating dose cohorts, each included 3 patients. Treatment was administered as a 1-hour single daily infusion for 6 consecutive days.
Astarabine® doses for each infusion: • For age ≤50 years: 0.5 g/m^2, 1.5 g/m^2, 3 g/m^2, 4.5 g/m^2 • For age >50 years: 0.3 g/m^2, 0.8 g/m^2, 1.5 g/m^2, 2.3 g/m^2 Results

[7] = Maximal tolerated dose, single dose IV in mice; format: in vivo
Procedure: IRC mice were injected once IV with Astarabine® in a dose ranging from 1000 to 8000 mg/kg. The mice were evaluated for 14 days. […] The following parameters: clinical signs, body weight, food consumption and blood analysis, were normal for both male and female mice at this dose, i.e., 8000 mg/kg. […] It is therefore concluded that 8000 mg/kg is the MTD of Astarabine® in mice for a single IV administration.

[8] = patient 1, Refractory AML, 0.3 gr/m^2/day
[9] = patient 2, Refractory AML, 0.3 gr/m^2/day
[10] = patient 3, Refractory AML, 0.5 gr/m^2/day
[11] = patient 4, Secondary AML, 0.8 gr/m^2/day
[12] = patient 5, Secondary AML, 0.8 gr/m^2/day
[13] = patient 6, Refractory AML, 0.8 gr/m^2/day
[14] = patient 8, Secondary AML, 1.5 gr/m^2/day
[15] = patient 9, Secondary AML, 1.5 gr/m^2/day
[16] = patient 10, Relapsed AML, 2.3 gr/m^2/day

## N[C@@H](CC(=O)Nc1ccn([C@@H]2O[C@H](CO)[C@@H](O)[C@@H]2O)c(=O)n1)C(=O)O [Astarabine®]
[1]; IRC, mouse, in vivo, single dose IP
  MTD at 7 days: 8270 mg/kg
[1]; single IP dose 8271 mg/kg, after 7 days of recovery
  Blood samples (hematology and biochemistry): normal results
[1]; single IP dose 1428 to 8271 mg/kg, all mice
  Necropsy, tissues: normal, with no macroscopic findings
[2]
  Metabolites detected in cells: detected free cytarabine metabolites
[3]; 6.25 mg/mouse/day IP
  Inhibition of growth of Molt-4 cells: 76.9%
[3]; 25 mg/mouse/day IP
  Inhibition of growth of Molt-4 cells: 82.8%
[4]; 14 days
  IV maximal tolerated dose: 400 mg/kg/day
[4]; iv
  NOAEL at 14 days: 400 mg/kg/day
[4]; iv, 400 mg/kg/day
  MTD at 14 days: 5600 mg/kg
[5]
  Reduction of toxicity in animals compared to the reported toxicity of cytarabine: 10-20 fold
[6]; 10 patients, 0.3-2.3 g/m^2/day, 1-hour daily infusion for 6 days, apart from neutropenic fever
  Adverse effects during or post therapy: No significant adverse effects
[6]; even for patients of 80 or more years of age
  Safety and tolerability: safe and very well tolerated
[6]; [8]
  Follow-up in months: 3 months
  BM blasts Day 14: 90%
  BM blasts Day 30: 83%
[6]; patient 1, Refractory AML, 0.3 gr/m^2/day x 6 days infusion
  BM blasts Day 0: 100%
[6]; [9]
  Follow-up in months: 2 months
  BM blasts Day 0: 100%
  BM blasts Day 14: 64%
  BM blasts Day 30: 70%
[6]; [10]
  Follow-up in months: 6 months
  BM blasts Day 0: 90%
  BM blasts Day 14: 37%
  BM blasts Day 30: 60%
[6]; [11]
  Follow-up in months: 4 months
  BM blasts Day 14: 39%
  BM blasts Day 30: 63%
[6]; [12]
  Follow-up in months: 9 months
  BM blasts Day 0: 80%
  BM blasts Day 14: 5%
  BM blasts Day 30: 0%
[6]; [13]
  Follow-up in months: 1 months
  BM blasts Day 0: 85%
  BM blasts Day 14: 100%
  BM blasts Day 30: 100%
[6]; patient 7, ALL, 1.5 gr/m^2/day
  Follow-up in months: 7 months
  BM blasts Day 0: 89%
  BM blasts Day 14: 3%
  BM blasts Day 30: 0.2%
[6]; [14]
  Follow-up in months: 6 months
  BM blasts Day 0: 63%
  BM blasts Day 14: 80%
  BM blasts Day 30: 8%
[6]; [15]
  Follow-up in months: 1 months
  Outcome: Died
  BM blasts Day 0: 100%
[6]; [16]
  Follow-up in months: 1 months
  Outcome: Died
  BM blasts Day 0: 100%
[6]; patients having acute leukemia, 0.3-2.3 g/m^2/day for 6 days
  Remission: three out of ten patients
[6]; patients of 75 or more years of age having AML or ALL, daily dose of about 2 g/m^2 or higher
  Safety and tolerability: safe and well tolerated
[7]; both sexes, IRC, mouse, in vivo, single IV administration, evaluated for 14 days
  MTD at 14 days: 8000 mg/kg
[7]; single IV dose 8000 mg/kg
  Drug dependent death: no drug dependent death

— US12064445B2, “Cytarabine conjugates for cancer therapy” (Biosight Ltd., priority 2015, dated 2024)
